Experiments:
Aminopeptidase N [1] = assay: Aminopeptidase N cleavage of test substrates (HPLC); assay type: biochemical; settings: 1 mM test substrate, 0.02 U APN, 37° C., 25 minutes
Protocol: Aminopeptidase N cleaves amino acids at the N-terminus of proteins and peptides attached to another amino acid. The final attachment in our test substrates consists of an amino acid linked to a hydrazide. The cleavage of this amino acid by aminopeptidases exposes the reactive hydrazide species. Our goal was to study the cleavage of amide bond between an amino acid and a hydrazide by aminopeptidase N. A stock solution of test substrates was prepared in 100% DMSO at a concentration of 25 mM. The stock soluton (6 μL) was added to buffer (50 mM Hepes/pH 7.5, 10 mM CaCl2, 0.1% Brij) for a final concentration of 1 mM test substrate in the reaction. To this reaction mix 0.02 U of the enzyme (APN) was added, the solution was mixed, and immediately 67.5 μL of the mix was transferred to HPLC vials containing 33.2 μL of acetic acid for t=0 minute measurement. The rest of the mix in the test tube was incubated at 37° C. for 25 minutes. At the 25 minutes time point 67.5 μL of the mix was transferred to the HPLC vial containing 33.2 μl of acetic acid for t=25 minute measurement. […] The peak areas were integrated and the substrate peak area was used to determine rate constant k in the following equation: K={(% hydrolyzed/100)*[S]}/[E]*[time] where • S=test substrate concentration in μmoles • E=aminopeptidase N concentration in units/ml • K=μmoles of substrate hydrolyzed/minute/unit enzyme
The procedures of Examples 63 and 64 were used to prepare these additional enamides. The ability of aminopeptidase-N (APN) to remove the terminal amino acid was determined by using the procedure described in Example 46.

Aminopeptidase N [2] = assay: as above; assay type: biochemical; settings: n = 2; for Rate, hydrolysis of N-terminal residue by APN (value in parenthesis): enzyme concentration […] 10^3 U; for Rate, hydrolysis of N-terminal residue by APN: enzyme concentration […] 10^4 U
THP-1 cells = assay: Lipid bilayer insertion / cell binding of test substrates; assay type: cell-based, human; settings: live cell suspensions
Protocol: This assay was designed to study localization of test substrates in lipid bilayers of cells. THP-1 cell line a human monocytic cell line was used in this assay. THP-1 cells were washed with phosphate buffered saline (PBS) and 2×10^6 cells were used for each reaction in a 150 μL reaction volume. Test substrates were added to these cell suspensions to give a final concentration of 0.15 mM in the reaction. The reactions were incubated at 37° C. for 1 hour. The test compound in the supernatant was analyzed by HPLC and quantified. The level of compound in the supernatant in the presence and absence of cells was determined and the following ratio was generated: R=Level of compound in absence of cells/level of compound in the presence of cells
The ratio increases with increased binding to cells. A ratio of 1 denotes no binding to cells.

Row | SMILES | Rate of hydrolysis (min^−1, U^−1) (Aminopeptidase N [1]) | Rate, hydrolysis of N-terminal residue by APN (value in parenthesis) (Aminopeptidase N [2]) | Rate, hydrolysis of N-terminal residue by APN (Aminopeptidase N [2]) | further results
1 | CC(C)C[C@H](N)C(=O)NNC(=O)c1ccc(N/N=C\c2ccccc2S(=O)(=O)O)nc1 [Example 7, 2-[2-({5-[N-((2S)-2-Amino-4-methylpentanoylamino)carbamoyl](2-pyridyl)}amino)(1Z)-2-azavinyl]benzenesulfonic Acid] | 1.2 μmoles μmoles (min^−1, U^−1) | – | – | –
2 | CCC/C=C(\CCC)NC(=O)[C@@H](N)CC(C)C [Example 333] | – | 0.209 mmol substrate · min^−1 · U enzym^−1 | 0.264 mmol substrate · min^−1 · U enzym^−1 | –
3 | CC(C)C[C@H](N)C(=O)Nc1ccc(COC(=O)NNC(=O)CCCCCNC(=O)c2ccc(N/N=C/c3ccccc3S(=O)(=O)O)nc2)cc1 [Example 24, 2-((1E)-2-{[5-(N-{5-[N-({[4-((2S)-2-Smino-4-methylpentanoylamino)phenyl]methoxy}carbonylamino)carbamoyl]pentyl}carbamoyl)(2-pyridyl)]amino}-2-azavinyl)benzenesulfonic Acid] | 0.52 μmoles μmoles (min^−1, U^−1) | – | – | –
4 | CCC/C=C(\CCC)NC(=O)[C@H](C)NC(=O)[C@@H](N)CC(C)C [Example 332] | – | 0.802 mmol substrate · min^−1 · U enzym^−1 | 1.89 mmol substrate · min^−1 · U enzym^−1 | –
5 | O=C(CCCCCCCc1ccc(O)cc1)NCCNC(=O)c1ccc(N/N=C/c2ccccc2S(=O)(=O)O)nc1 [Example 26, 2-((1E)-2-Aza-2-{[5-(N-{2-[8-(4-hydroxyphenyl)octanoylamino]ethyl}-carbamoyl)(2-pyridyl)]amino}vinyl)benzenesulfonic Acid] | – | – | – | association with cells (in words) (THP-1 cells): will associate with cells
6 | CC(C)C[C@H](N)C(=O)NNC(=O)c1ccc(CNC(=O)c2ccc(N/N=C/c3ccccc3S(=O)(=O)O)nc2)cc1 [Example 8, 2-[(1E)-2-({5-[N-({4-[N-((2S)-2-Amino-4-methylpentanoylamino)carbamoyl]phenyl}methyl)carbamoyl](2-pyridyl)}amino)-2-azavinyl]benzenesulfonic Acid] | 0.6 μmoles μmoles (min^−1, U^−1) | – | – | –
7 | CC(=O)NCCCCCC/C=C/NC(=O)[C@@H](N)CC(C)C.O=CO [Example 63, N-[(1E)-8-(Acetylamino)oct-1-enyl](2S)-2-amino-4-methylpentanamide, Formic Acid Salt] | – | 0.167 mmol substrate · min^−1 · U enzym^−1 | 0.202 mmol substrate · min^−1 · U enzym^−1 | –
8 | CC(C)C[C@H](N)C(=O)NNc1ccc(C(=O)NCCNC(=O)c2ccc(N/N=C/c3ccccc3S(=O)(=O)O)nc2)cc1 [Example 6, 2-{(1E)-2-[(5-{N-[2-({4-[((2S)-2-Amino-4-methylpentanoylamino)amino]phenyl}carbonylamino)ethyl]carbamoyl}(2-pyridyl))amino]-2-azavinyl}benzenesulfonic Acid] | 0 μmoles μmoles (min^−1, U^−1) | – | – | –
9 | COc1ccc2cc(C(=O)NCCCCCC(=O)NNC(=O)[C@@H](N)CC(C)C)c(=O)oc2c1 [Example 9, N-((2S)-2-Amino-4-methylpentanoylamino)-6-[(7-methoxy-2-oxo(2H-chromen-3-yl))carbonylamino]hexanamide] | 0.62 μmoles μmoles (min^−1, U^−1) | – | – | –
